The source of these data is US12060351B2, “Thiadiazole IRAK4 inhibitors” (Gilead Sciences, Inc., priority 2018, dated 2024).

Read-outs that look alike come from different tables or passages of the source.

The test system of one experiment is TNFα. The experiment is described as follows: IRAK4 Monocyte TNFα Cell Based Assay (LPS-stimulated, TR-FRET TNFα detection). Set-up: species or system human. To be noted: read-out: EC50 MONO TNF HTRF. Summed up:
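Monocytes (5,000 cells/well) treated with compound (0.1% DMSO) for 1 hour at 37° C, then stimulated with 50 pg/ml LPS for 4 hours. TNFα in medium quantified by TR-FRET two-antibody detection after overnight room-temperature incubation. Percent of control calculated against unstimulated (0%) and LPS-stimulated (100%) cells.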
(In general: In TR-FRET formats the signal depends on donor and acceptor labels being close together.)

A further experiment addresses T1, IRAK4 enzyme (Homo sapiens, UniProt Q9NWZ3).
T1 construct: purchased Carna Biosciences, Chuo-ku, Kobe, Japan
T1 sequence (Q9NWZ3 1-460): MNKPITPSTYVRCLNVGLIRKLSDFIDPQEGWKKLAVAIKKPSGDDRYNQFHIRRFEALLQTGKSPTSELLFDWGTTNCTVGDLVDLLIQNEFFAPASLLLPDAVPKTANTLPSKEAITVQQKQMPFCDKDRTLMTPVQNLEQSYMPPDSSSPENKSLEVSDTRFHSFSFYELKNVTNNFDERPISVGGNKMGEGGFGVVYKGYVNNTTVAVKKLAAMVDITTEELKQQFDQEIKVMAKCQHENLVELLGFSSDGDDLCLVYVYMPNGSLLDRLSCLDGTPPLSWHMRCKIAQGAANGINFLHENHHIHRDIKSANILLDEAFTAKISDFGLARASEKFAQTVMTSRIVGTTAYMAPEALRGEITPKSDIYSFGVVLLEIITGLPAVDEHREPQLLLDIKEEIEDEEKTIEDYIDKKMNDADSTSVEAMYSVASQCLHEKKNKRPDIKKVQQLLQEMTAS
In words: IRAK4 Biochemical Assay (TR-FRET, STK1 KinEASE). To be noted: 500 μM ATP, Table 2 second part (compounds 33-343), read-out: IC50 IRAK4-HTBS. Summed up:
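Human IRAK4 (0.75 nM) preincubated 15 min with compound and 2 μM STK1 peptide, then reacted 120 min at room temperature with 500 μM ATP in HEPES pH 7.0 buffer with MgCl2 and DTT. EDTA stop with Cryptate anti-phosphopeptide antibody and tracer, 60 min; TR-FRET read as 665/615 nm ratio.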

[1] abbreviates: Homo sapiens, Monocyte, human monocytes, LPS-stimulated, Table 2 second part (compounds 33-343).

For orientation: EC50 means the concentration that produces a half-maximal response. The term IC50 denotes the midpoint of a concentration-inhibition curve. Take `CC(=O)N[C@H]1C[C@@H](c2nnc(-c3cnc(-c4ccc5cc(C#N)cnn45)cc3NC(C)C)s2)C1` [Compound 279, N-((1s,3s)-3-(5-(6-(3-cyanopyrrolo[1,2-b]pyridazin-7-yl)-4-(isopropylamino)pyridin-3-yl)-1,3,4-thiadiazol-2-yl)cyclobutyl)acetamide]: the EC50 in the experiment with TNFα (setting [1]) came out at 15.9 nM. In addition, the half-inhibitory concentration (IC50) on IRAK4 enzyme amounted to 0.4 nM.
For the compound “7-(5-(5-(4-aminobicyclo[2.2.2]octan-1-yl)-1,3,4-thiadiazol-2-yl)-4-((tetrahydro-2H-pyran-4-yl)amino)pyridin-2-yl)pyrrolo[1,2-b]pyridazine-3-carbonitrile [Example 336]”, the EC50 in the experiment with TNFα (human monocytes, LPS-stimulated, Table 2 second part (compounds 33-343)) was 11 nM. Further, the IC50 on IRAK4 enzyme was 0.7 nM.
For the compound `CC(=O)N[C@H]1[C@@H]2COC[C@H]1CN(c1nnc(-c3cnc(-c4ccc5cc(C#N)cnn45)cc3NC(C)C)s1)C2` [Example 182, N-((1R,5S,9r)-7-(5-(6-(3-cyanopyrrolo[1,2-b]pyridazin-7-yl)-4-(isopropylamino)pyridin-3-yl)-1,3,4-thiadiazol-2-yl)-3-oxa-7-azabicyclo[3.3.1]nonan-9-yl)acetamide], the 50% effective concentration (EC50) in the experiment with TNFα (setting [1]) is 37.8 nM. The IC50 on IRAK4 enzyme came to 0.53 nM.
The corresponding values for `CC(=O)N(C)[C@@H]1[C@@H]2CC[C@H]1CN(c1nnc(-c3cnc(-c4ccc5cc(C#N)cnn45)cc3NC(C)C)s1)C2` [Compound 300, N-((1R,5S,8s)-3-(5-(6-(3-cyanopyrrolo[1,2-b]pyridazin-7-yl)-4-(isopropylamino)pyridin-3-yl)-1,3,4-thiadiazol-2-yl)-3-azabicyclo[3.2.1]octan-8-yl)-N-methylacetamide] are 5.3 nM and 0.98 nM.
The corresponding values for `COC(=O)N1CCN(C(=O)N[C@@H]2[C@@H]3CC[C@H]2CN(c2nnc(-c4cnc(-c5ccc6cc(C#N)cnn56)cc4NC(C)C)s2)C3)CC1` [Example 105, methyl 4-(((1R,5S,8s)-3-(5-(6-(3-cyanopyrrolo[1,2-b]pyridazin-7-yl)-4-(isopropylamino)pyridin-3-yl)-1,3,4-thiadiazol-2-yl)-3-azabicyclo[3.2.1]octan-8-yl)carbamoyl)piperazine-1-carboxylate] are 4.2 nM and 0.98 nM.
Taken in the same sequence, the figures for `CC(=O)N[C@H]1CC[C@H](c2nnc(-c3cnc(-c4ccc5cc(C#N)cnn45)cc3N[C@H]3CCC[C@@H](O)C3)s2)CC1` [Compound 245, N-((1S,4r)-4-(5-(6-(3-cyanopyrrolo[1,2-b]pyridazin-7-yl)-4-(((1S,3R)-3-hydroxycyclohexyl)amino)pyridin-3-yl)-1,3,4-thiadiazol-2-yl)cyclohexyl)acetamide] were 3.2 nM and 0.55 nM.
With `CC(C)Nc1cc(-c2ccc3cc(C#N)cnn23)ncc1-c1nnc(N2C[C@H]3CC[C@@H](C2)[C@@H]3N2CCOC2=O)s1` [Compound 301, 7-(4-(isopropylamino)-5-(5-((1R,5S,8s)-8-(2-oxooxazolidin-3-yl)-3-azabicyclo[3.2.1]octan-3-yl)-1,3,4-thiadiazol-2-yl)pyridin-2-yl)pyrrolo[1,2-b]pyridazine-3-carbonitrile], in the experiment with TNFα (setting [1]), the EC50 came out at 4.9 nM. Also, the IC50 on IRAK4 enzyme worked out at 1.04 nM.
The corresponding values for `CC(=O)N[C@@H]1[C@@H]2CC[C@H]1CN(c1nnc(-c3cnc(-c4ccc5cc(C#N)cnn45)cc3NC3CCOCC3)s1)C2` [Example 171, N-((1R,5S,8s)-3-(5-(6-(3-cyanopyrrolo[1,2-b]pyridazin-7-yl)-4-((tetrahydro-2H-pyran-4-yl)amino)pyridin-3-yl)-1,3,4-thiadiazol-2-yl)-3-azabicyclo[3.2.1]octan-8-yl)acetamide] are 2.1 nM and 0.46 nM.
Take `CC1(Nc2cc(-c3ccc4cc(C#N)cnn34)ncc2-c2nnc([C@H]3CC[C@H](NC(=O)C4CC4)CC3)s2)COC1` [Example 158, N-((1r,4r)-4-(5-(6-(3-cyanopyrrolo[1,2-b]pyridazin-7-yl)-4-((3-methyloxetan-3-yl)amino)pyridin-3-yl)-1,3,4-thiadiazol-2-yl)cyclohexyl)cyclopropanecarboxamide]: in the experiment on TNFα (setting [1]), the EC50 turned out to be 19.8 nM. In addition, the IC50 on IRAK4 enzyme was 1.15 nM.
For `CC(=O)N[C@@H]1C[C@H]2COC[C@@H](C1)N2c1nnc(-c2cnc(-c3ccc4cc(C#N)cnn34)cc2NC(C)C)s1` [Example 209, N-((1R,5S,7r)-9-(5-(6-(3-cyanopyrrolo[1,2-b]pyridazin-7-yl)-4-(isopropylamino)pyridin-3-yl)-1,3,4-thiadiazol-2-lyl)-3-oxa-9-azabicyclo[3.3.1]nonan-7-yl)acetamide], the EC50 with TNFα (Homo sapiens, Monocyte) came out at 9.6 nM. Also, the IC50 on IRAK4 enzyme was found to be 0.89 nM.
As to `CC(=O)N[C@H]1CC[C@H](c2nnc(-c3cnc(-c4ccc5cc(C#N)cnn45)cc3NC3(C)CCOCC3)s2)CC1` [Compound 268, N-((1r,4r)-4-(5-(6-(3-cyanopyrrolo[1,2-b]pyridazin-7-yl)-4-((4-methyltetrahydro-2H-pyran-4-yl)amino)pyridin-3-yl)-1,3,4-thiadiazol-2-yl)cyclohexyl)acetamide], the EC50 in the experiment on TNFα (setting [1]) is 14.1 nM. The IC50 on IRAK4 enzyme amounted to 0.61 nM.
Consider `CC(C)Nc1cc(-c2ccc3cc(C#N)cnn23)ncc1-c1nnc(N2CCS(=N)(=O)CC2)s1` [Compound 262, 7-(5-(5-(1-imino-1-oxido-116-thiomorpholino)-1,3,4-thiadiazol-2-yl)-4-(isopropylamino)pyridin-2-yl)pyrrolo[1,2-b]pyridazine-3-carbonitrile], for which, in the experiment on TNFα (setting [1]), the EC50 was determined as 69.9 nM. Further, the IC50 at IRAK4 enzyme was 3.81 nM.
The corresponding values for `COC(=O)N[C@H]1CC[C@H](Nc2cc(-c3ccc4cc(C#N)cnn34)ncc2-c2nnc(N3C[C@H]4CC[C@@H](C3)[C@@H]4NC(C)=O)s2)CC1` [Example 54, methyl ((1R,4r)-4-((5-(5-((1R,5S,8S)-8-acetamido-3-azabicyclo[3.2.1]octan-3-yl)-1,3,4-thiadiazol-2-yl)-2-(3-cyanopyrrolo[1,2-b]pyridazin-7-yl)pyridin-4-yl)amino)cyclohexyl)carbamate] are 2.4 nM and 0.73 nM.
On to `CC(C)Nc1cc(-c2ccc3cc(C#N)cnn23)ncc1-c1nnc(C(=O)N2CCC[C@H]2CO)s1` [Example 217, (S)-7-(5-(5-(2-(hydroxymethyl)pyrrolidine-1-carbonyl)-1,3,4-thiadiazol-2-yl)-4-(isopropylamino)pyridin-2-yl)pyrrolo[1,2-b]pyridazine-3-carbonitrile], for which the EC50 in the experiment on TNFα (setting [1]) stood at 11.1 nM. The IC50 at IRAK4 enzyme was 0.81 nM.
Taken in the same sequence, the figures for `CCOC(=O)Cc1nnc(-c2cnc(-c3ccc4cc(C#N)cnn34)cc2NC(C)C)s1` [Example 318, ethyl 2-(5-(6-(3-cyanopyrrolo[1,2-b]pyridazin-7-yl)-4-(isopropylamino)pyridin-3-yl)-1,3,4-thiadiazol-2-yl)acetate] were 102 nM and 0.94 nM.
The corresponding values for `CC(C)(O)C(=O)N[C@@H]1[C@@H]2CC[C@H]1CN(c1nnc(-c3cnc(-c4ccc5cc(C#N)cnn45)cc3NC3COC3)s1)C2` [Example 87, N-((1R,5S,8s)-3-(5-(6-(3-cyanopyrrolo[1,2-b]pyridazin-7-yl)-4-(oxetan-3-ylamino)pyridin-3-yl)-1,3,4-thiadiazol-2-yl)-3-azabicyclo[3.2.1]octan-8-yl)-2-hydroxy-2-methylpropanamide] are 2.1 nM and 0.6 nM.
Taken in the same sequence, the figures for `CC(C)Nc1cc(-c2ccc3cc(C#N)cnn23)ncc1-c1nnc(C(=O)N[C@H]2C[C@@](C)(O)C2)s1` [Example 218, 5-(6-(3-cyanopyrrolo[1,2-b]pyridazin-7-yl)-4-(isopropylamino)pyridin-3-yl)-N-((1s,3s)-3-hydroxy-3-methylcyclobutyl)-1,3,4-thiadiazole-2-carboxamide] were 858 nM and 1.12 nM.
Consider `CC1(Nc2cc(-c3ccc4cc(C#N)cnn34)ncc2-c2nnc(N3C[C@H]4CC[C@@H](C3)[C@@H]4NC(=O)C(C)(C)O)s2)COC1` [Example 210, N-((1R,5S,8s)-3-(5-(6-(3-cyanopyrrolo[1,2-b]pyridazin-7-yl)-4-((3-methyloxetan-3-yl)amino)pyridin-3-yl)-1,3,4-thiadiazol-2-yl)-3-azabicyclo[3.2.1]octan-8-yl)-2-hydroxy-2-methylpropanamide], for which the EC50 with TNFα (setting [1]) was determined as 2.8 nM. In addition, at IRAK4 enzyme, the IC50 worked out at 0.84 nM.
For the compound `CC(=O)N[C@@H]1C[C@H]2CC[C@@H](C1)N2c1nnc(-c2cnc(-c3ccc4cc(C#N)cnn34)cc2NC(C)C)s1` [Example 56, N-((1R,3s,5S)-8-(5-(6-(3-cyanopyrrolo[1,2-b]pyridazin-7-yl)-4-(isopropylamino)pyridin-3-yl)-1,3,4-thiadiazol-2-yl)-8-azabicyclo[3.2.1]octan-3-yl)acetamide], in the experiment on TNFα (Homo sapiens, Monocyte), the EC50 worked out at 8.3 nM. For the same compound, the IC50 at IRAK4 enzyme worked out at 0.49 nM.
